Patent US4031235A, “Insecticidal substituted acetate compounds” (Sumitomo Chemical Company, Limited, priority 1972, dated 1977)
In brackets after ≈: the same amount, converted by molar mass. Read-outs that look alike come from different tables or passages of the source.

What was measured:
Assay type in all cases: in vivo
[1] = system: oriental house flies; test: Potentiation of insecticidal activity by addition of piperonyl butoxide, topical application (Experimental Example 6); details: piperonyl butoxide 5 times active ingredient; acetone solution on thoracic dorsal plate
Procedure: To each of the compounds (22), (51), (62), (63), (82), (86), (125), (150), (160), (176), (177), (178), (184), (185), (191), (195), (200), (201), (204), (208), (210), (212) and (226) was added piperonyl butoxide in an amount of 5 times that of the active ingredient, respectively to prepare an acetone solution having a given concentration. Each of the thus prepared acetone solutions was applied onto a thoracic dosal plate of oriental house flies using a microshringe to observe a synergestic effect on insecticidal activity by piperonyl butoxide.

[2] = system: Larvae of Mosquito (Culex pipiens); test: Insecticidal activity on larvae of mosquito (Experimental Example 2); details: 24 h, read-out: LC50 (50% lethal concentration)
Procedure: An emulsifiable concentrate was prepared by blending each of the compounds (1) to (300) of the present invention, xylol and Sorpol SM-200 (trade name; manufactured by Toho Chemical Co., Ltd.) in a proportion of 25%, 50% and 25% (by weight), respectively. 20 to 25 day-old rice plants after seeding were grown in pots and sprayed with each 300-fold dilute solution of the emulsifiable concentrates thus prepared and a 300-fold dilute solution of carbaryl 30% wettable powder diluted with water as a control commercial agent in an amount of 10 ml/pot in each case and then the pots were covered by a cylindrical metal net. 15 small brown planthoppers (Delphacodes striatella Fallen) per group were released in each of the pots treated with carbaryl wettable powder, and compound (1) to (21) and (102) to (110), while 15 green rice leafhopper (Nephotettix bipuntatus cincticeps Uhler) per group were released in each of the pots treated with the carbaryl wettable powder and compounds (22) to (101) and (111) to (300).
Of the emulsifiable concentrates prepared in Experimental Example 1, each of those prepared from the compounds of Table 1 below was diluted with water to each of test concentrations and a 200 ml portion thereof was added to a 300 ml volume beaker. 30 larvae of mosquito per group were released in each of the beaker and allowed to stand for 1 day. Survival was observed and a LC50 (50% lethal concentration) was determined by calculating a percent killing in each case. As a control, lindane emulsifiable concentrate was used.

[3] = system: adult mosquitoes (Culex pipiens); test: Knock-down of adult mosquitoes by 0.2% oil preparation (Experimental Example 4); details: read-out: mosquitoes knocked down
Procedure: (§1) 0.2% oil preparation was prepared from each of the compounds (1), (2), (8), (14), (22), (25), (26), (27), (51), (62), (73), (82), (86), (88), to (90), (92), (94), (96), (111), (119), (121), (165), (175), (180), (184), (185), (195), (200), (201), and (208) and allethrin as a control using deodorized kerosene.

[4] = system: oriental house flies; test: Activity on knock-down against oriental house flies (Experimental Example 5); details: 0.2% oil preparation, 0.7 ml, 1.5 Kg/cm^2, (70 cm)^3 glass box
Procedure: as §1
20 oriental house flies per group were released in a (70 cm)^3 volume glass box and sprayed with each of the oil preparations prepared in Experimental Example 4 from the compounds of Table 3 below and allethrin in an amount of 0.7 ml under a pressure of 1.5 Kg/cm^2.

[5] = 0.2% oil preparation, 0.7 ml, 1.5 Kg/cm^2, (70 Cm)^3 glass box

## CC(C)C(C(=O)OCc1coc(Cc2ccccc2)c1)c1cccc(Cl)c1 (stereo not drawn) [compound 204]
[1]
  Potentiation magnification of insecticidal activity by the addition of piperonyl butoxide: 4.7
[2]
  LC50: 7.5 ng/mL (≈ 0.0196 µM)

## Cc1ccc(C(C)C(=O)OCc2coc(Cc3ccccc3)c2)cc1 (stereo not drawn) [compound 181]
[2]
  LC50: 82 ng/mL (≈ 0.245 µM)

## COc1ccc(C(C(=O)OCc2ccc(Cc3ccccc3)s2)C(C)C)cc1 (stereo not drawn) [compound 86, 5'-Benzyl-2'-thenylmethyl-α-isopropyl-4-methoxyphenylacetate]
[1]
  Potentiation magnification of insecticidal activity by the addition of piperonyl butoxide: 4.5
[3]; [5]
  pest or weed control at 0.2 %: > 80%

## C=CCC1=C(C)C(OC(=O)C(CC)c2ccco2)CC1=O (stereo not drawn) [compound 16, 2'-Allyl-3'-methyl-2'-cyclopentene-1'-one-4"-yl-α-ethyl-2-furylacetate]
[2]
  LC50: 1.4 ng/mL (≈ 0.00486 µM)

## C=C(C)C(C(=O)OCc1coc(Oc2ccccc2)c1)c1ccc(C)cc1 (stereo not drawn) [compound 115, 5'-Phenoxy-3'-furylmethyl-α-isopropenyl-4-methyl phenylacetate]
[2]
  LC50: 5 ng/mL (≈ 0.0138 µM)

## CCC(C(=O)OCc1coc(Cc2ccccc2)c1)c1ccc(C)cc1 (stereo not drawn) [compound 102, 5'-Benzyl-3'-furylmethyl-α-ethyl-4-methylphenylacetate]
[2]
  LC50: 9.5 ng/mL (≈ 0.0273 µM)

## CCC(C(=O)OCc1coc(Cc2ccccc2)c1)c1ccc([S+](C)[O-])cc1 (stereo not drawn) [compound 26, 5'-Benzyl-3'-furylmethyl-α-ethyl-4-methylsulfoxyphenylacetate]
[3]; [5]
  pest or weed control at 0.2 %: > 80%

## C=C(C)C(C(=O)OCc1cccc(Oc2ccccc2)c1)c1cccc(Cl)c1 (stereo not drawn) [compound 120, 3'-Phenoxybenzyl-α-isopropenyl-3-chlorophenylacetate]
[2]
  LC50: 4 ng/mL (≈ 0.0102 µM)

## Cc1ccc(C(C(=O)OCc2ccc(Cc3ccccc3)cc2)C(C)C)cc1 (stereo not drawn) [compound 226]
[1]
  Potentiation magnification of insecticidal activity by the addition of piperonyl butoxide: 4.5
[2]
  LC50: 13.5 ng/mL (≈ 0.0362 µM)

## CCc1ccc(C(C(=O)OCc2cccc(Oc3ccccc3)c2)C(C)C)cc1 (stereo not drawn) [compound 215]
[2]
  LC50: 13.2 ng/mL (≈ 0.034 µM)

## CCc1ccc(C(C(=O)OCc2coc(Cc3ccccc3)c2)C(C)C)cc1 (stereo not drawn) [compound 214]
[2]
  LC50: 12.7 ng/mL (≈ 0.0337 µM)

## Cc1ccc(C(C(=O)OCc2coc(Cc3ccccc3)c2)C(C)C)cc1 (stereo not drawn) [compound 103, 5'-Benzyl-3'-furylmethyl-α-isopropyl-4-methylphenylacetate]
[2]
  LC50: 9.2 ng/mL (≈ 0.0254 µM)

## CC(C)C(C(=O)OC(C#N)c1cccc(Oc2ccccc2)c1)c1ccc(Cl)cc1 (stereo not drawn) [compound 231]
[2]
  LC50: 1.4 ng/mL (≈ 0.00333 µM)

## C=CCC1=C(C)C(OC(=O)C2C(C=C(C)C)C2(C)C)CC1=O (stereo not drawn) [allethrin, reference compound]
[4]
  KT50 (50% knock-down time): 186 s
[3]
  pest or weed control at 0.2 %: > 80%

## COc1ccc(C(C(=O)OCc2cccc(Cc3ccccc3)c2)C(C)C)cc1 (stereo not drawn) [compound 89, 3'-Benzylbenzyl-α-isopropyl-4-methoxyphenylacetate]
[4]
  KT50 (50% knock-down time): 155 s

## CCC(C(=O)OCN1C(=O)C2=C(CCCC2)C1=O)c1c(C)cc(C)cc1C (stereo not drawn) [compound 27, 3',4',5',6'-Tetrahydrophthalimidomethyl-2-ethyl-2,4,6-trimethylphenylacetate]
[3]; [5]
  pest or weed control at 0.2 %: > 80%

## CCC(C(=O)OCc1cccc(Oc2ccccc2)c1)c1ccc(Br)cc1 (stereo not drawn) [compound 178]
[1]
  Potentiation magnification of insecticidal activity by the addition of piperonyl butoxide: 5.4

## C=C(C)C(C(=O)OCc1csc(Cc2ccccc2)c1)c1ccc(C)cc1 (stereo not drawn) [compound 112]
[2]
  LC50: 4.6 ng/mL (≈ 0.0122 µM)

## CCC(C(=O)OCc1coc(Cc2ccco2)c1)c1ccc(Br)cc1 (stereo not drawn) [compound 175]
[4]
  KT50 (50% knock-down time): 152 s
[3]; [5]
  pest or weed control at 0.2 %: > 80%

## C=C(C)C(C(=O)OCN1C(=O)C2=C(CCCC2)C1=O)c1ccc(OC)cc1 (stereo not drawn) [compound 90, 3',4',5',6'-Tetrahydrophthalimidomethyl-α-isopropenyl-4-methoxyphenylacetate]
[3]; [5]
  pest or weed control at 0.2 %: > 80%

## CC(C)C(C(=O)OCc1coc(Cc2ccccc2)c1)c1ccc(Br)cc1 (stereo not drawn) [compound 212]
[1]
  Potentiation magnification of insecticidal activity by the addition of piperonyl butoxide: 5.0
[2]
  LC50: 3.7 ng/mL (≈ 0.00866 µM)

## C#CCc1ccc(COC(=O)C(CC)c2ccccc2)cc1 (stereo not drawn) [compound 10, 4'-Propargylbenzyl-α-ethylphenylacetate]
[2]
  LC50: 3 ng/mL (≈ 0.0103 µM)

## C#CCc1ccc(C(C#C)OC(=O)C(c2ccc(C)cc2)C(C)C)o1 (stereo not drawn) [compound 160]
[1]
  Potentiation magnification of insecticidal activity by the addition of piperonyl butoxide: 7.2

## C=C(C)C(C(=O)OCc1coc(Cc2ccccc2)c1)c1ccc(C)cc1 (stereo not drawn) [compound 128, 5'-Benzyl-3'-furylmethyl-α-isopropenyl-4-methylphenylacetate]
[2]
  LC50: 4.7 ng/mL (≈ 0.013 µM)

## CCC(C(=O)OCc1coc(Cc2ccccc2)c1)c1cccc(C)c1 (stereo not drawn) [compound 104, 5'-Benzyl-3'-furylmethyl-α-ethyl-3-methylphenylacetate]
[2]
  LC50: 12 ng/mL (≈ 0.0344 µM)

## C=C(C)C(C(=O)OCc1cccc(Cc2ccccc2)c1)c1ccc(OC)cc1 (stereo not drawn) [compound 92, 3'-Benzylbenzyl-α-isopropenyl-4-methoxyphenylacetate]
[3]; [5]
  pest or weed control at 0.2 %: > 80%

## CSc1ccc(C(C(=O)OCc2cccc(Oc3ccccc3)c2)C(C)C)cc1 (stereo not drawn) [compound 298]
[2]
  LC50: 9.7 ng/mL (≈ 0.0239 µM)

## COc1ccc(C(C(=O)OCc2cc3c(o2)CCCC3)C(C)C)cc1 (stereo not drawn) [compound 88, 4',5'-Tetramethylenefurfuryl-α-isopropyl-4-methoxyphenylacetate]
[4]
  KT50 (50% knock-down time): 147 s
[3]; [5]
  pest or weed control at 0.2 %: > 80%

## Cc1ccc(C(C(=O)OC(C#N)c2cccc(Oc3ccccc3)c2)C(C)C)cc1 (stereo not drawn) [compound 227]
[2]
  LC50: 1.9 ng/mL (≈ 0.00476 µM)

## C=C(C)C(C(=O)OCc1cccc(Oc2ccccc2)c1)c1ccc(OC)cc1C (stereo not drawn) [compound 96, 3'-Phenoxybenzyl-α-isopropenyl-2-methyl-4-methoxyphenylacetate]
[4]
  KT50 (50% knock-down time): 92 s
[3]; [5]
  pest or weed control at 0.2 %: > 80%

## CCC(C(=O)OC1C=C(Cc2ccccc2)C(=O)C1)c1ccc(F)cc1 (stereo not drawn) [compound 191]
[1]
  Potentiation magnification of insecticidal activity by the addition of piperonyl butoxide: 4.3

## C#CCc1ccc(C(C#C)OC(=O)C(CC)c2ccc(OC)cc2)o1 (stereo not drawn) [compound 94, 5'-Propargyl-α'-ethynylfurfuryl-α-ethyl-4-methoxyphenylacetate]
[3]; [5]
  pest or weed control at 0.2 %: > 80%

## CC(C)C(C(=O)OCc1cccc(Oc2ccccc2)c1)c1ccc(F)cc1 (stereo not drawn) [compound 210]
[1]
  Potentiation magnification of insecticidal activity by the addition of piperonyl butoxide: 4.8
[2]
  LC50: 3.5 ng/mL (≈ 0.00925 µM)

## COc1ccc(C(C(=O)OCN2C(=O)C3=C(CCCC3)C2=O)C(C)C)cc1 (stereo not drawn) [compound 73, 3',4',5',6'-Tetrahydrophthalimidomethyl-α-isopropyl-p-methoxyphenylacetate]
[3]; [5]
  pest or weed control at 0.2 %: > 80%

## C=C(C)C(C(=O)OCc1coc(Cc2ccco2)c1)c1ccc(C)cc1 (stereo not drawn) [compound 113, 5'-Furfuryl-3'-furylmethyl-α-isopropenyl-4-methylphenylacetate]
[2]
  LC50: 5.3 ng/mL (≈ 0.0151 µM)

## Cl[C@H]1[C@H](Cl)[C@@H](Cl)[C@@H](Cl)[C@H](Cl)[C@H]1Cl [Lindane, lindane, reference compound]
[2]
  LC50: 220 ng/mL (≈ 0.756 µM)

## C=C(C)C(C(=O)OCc1cccc(Oc2ccccc2)c1)c1ccc(CC)cc1 (stereo not drawn) [compound 126, 3'-Phenoxybenzyl-α-isopropenyl-4-ethylphenylacetate]
[2]
  LC50: 5.6 ng/mL (≈ 0.0145 µM)

## Cc1cccc(C(C(=O)OCc2coc(Cc3ccccc3)c2)C(C)C)c1 (stereo not drawn) [compound 105, 5'-Benzyl-3'-furylmethyl-α-isopropyl-3-methylphenylacetate]
[2]
  LC50: 10.5 ng/mL (≈ 0.029 µM)

## Cc1ccc(C(C)C(=O)OCc2cccc(Oc3ccccc3)c2)cc1 (stereo not drawn) [compound 183]
[2]
  LC50: 88.5 ng/mL (≈ 0.255 µM)

## CCC(C(=O)OCc1coc(Cc2ccccc2)c1)c1ccccc1C (stereo not drawn) [compound 110, 5'-Benzyl-3'-furylmethyl-α-ethyl-2-methylphenylacetate]
[2]
  LC50: 12.5 ng/mL (≈ 0.0359 µM)

## CCC(C(=O)OCc1cccc(Oc2ccccc2)c1)c1ccc(OC(C)=O)cc1 (stereo not drawn) [compound 25, 3'-Phenoxybenzyl-α-ethyl-4-acetoxyphenylacetate]
[3]; [5]
  pest or weed control at 0.2 %: > 80%

## CCC(C(=O)OCc1cccc(Oc2ccccc2)c1)c1ccc(Cl)cc1 (stereo not drawn) [compound 177]
[1]
  Potentiation magnification of insecticidal activity by the addition of piperonyl butoxide: 5.8
[2]
  LC50: 7.4 ng/mL (≈ 0.0194 µM)

## CCC(C(=O)OC(C#N)c1cccc(Oc2ccccc2)c1)c1ccccc1 (stereo not drawn) [compound 14, 3'-Phenoxy-α'-cyanobenzyl-α-ethylphenylacetate]
[2]
  LC50: 2.6 ng/mL (≈ 0.007 µM)
[3]; [5]
  pest or weed control at 0.2 %: > 80%
